What was measured:
human Mnk1 = human Mnk1 (Homo sapiens (Human), UniProt Q9BUB5); assay: Mnk1 in vitro kinase assay (indirect fluorescence polarization); assay type: biochemical
Method: (§1) Inhibitory potency of compounds against Mnk1, Mnk2a and other kinases was assessed with assays based on a format known to those skilled in the art as the indirect (competitive) fluorescence polarization. The assay detection system comprises a small fluorophore-labeled phospho-peptide (termed ligand) bound to a phospho-specific antibody. The product generated by the kinase reaction competes with the ligand for antibody binding. Based on the larger molecular volume of the bound ligand, which results in a lower rotation rate in solution, its emitted light has a higher degree of polarization than the one from the free ligand.
(§2) In brief, the open reading frames of human Mnk1 and Mnk2a were amplified from cDNA using the forward/reverse primer pairs
(§3) (utilized restriction sites underlined), respectively, and cloned into the BamHI and SalI sites of the vector pGEX-4T1 (Amersham, Sweden, cat. no. 27-4580-01). These constructs allow prokaryotic expression of Mnk1 or Mnk2a as fusion protein with a N-terminal glutathione S-transferase (GST) tag, referred to as GST-Mnk1 or GST-Mnk2a. The following expression and purification procedure was identical for GST-Mnk1 and GST-Mnk2a, referring in general to GST-Mnk, when not distinguishing between the two isoforms. Expression of GST-Mnk was in E. coli BL21 (Merck Biosciences, Germany, cat. no. 69449). Cells were grown in LB-Bouillon (Merck, Germany, cat. no. 1.10285) supplemented with 100 μg/ml ampicillin (Sigma, Germany, cat. no. A9518) at 37° C. When the culture had reached a density corresponding to an A600 of 0.8, an equal volume of ice cold LB/ampicillin was added, the culture transferred to 25° C. and induced for 4 h with 1 mM isopropyl thiogalactoside (IPTG, Roth, Germany, cat. no. 2316.4). Cells harvested by centrifugation were resuspended in 10 ml lysis buffer (50 mM tris(hydroxymethyl)aminomethane hydrochloride (Tris/HCl, Sigma, Germany, cat. no. T5941) pH 7.5, 300 mM sodium chloride (NaCl, Sigma, Germany, cat. no. S7653), 5% (w/v) glycerol (Sigma, Germany, cat. no. G5516), 3 mM DTT dithiotreitol (DTT, Sigma, Germany, cat. no. D9779)) per gram wet weight cell pellet. Lysates were prepared by disruption of cells with a sonifier and subsequent clearing by centrifugation at 38000 g for 45 min at 4° C.
(§4) The lysate was applied to a GSTPrep FF 16/10 column (Amersham, Sweden, cat. no. 17-5234-01) equilibrated with lysis buffer. Removal of unbound material was with 3 column volumes (CV) lysis buffer. Elution was with 2 CV of elution buffer (50 mM Tris/HCl pH 7.5, 300 mM NaCl, 5% (w/v) glycerol, 20 mM glutathione (Sigma, Germany, cat. no. G4251)). Peak fractions were pooled and the protein transferred into storage buffer (50 mM Tris/HCl pH 7.5, 200 mM NaCl, 0.1 mM ethylene glycol-bis(2-aminoethylether)-N,N,N′,N′-tetraacetic acid (EGTA, Aldrich, Germany, cat. no. 23, 453-2), 1 mM DTT, 10% (w/v) glycerol, 0.5 M sucrose (Sigma, Germany, cat. no. SO389) by gel filtration on a PD10 desalting column (Amersham, Sweden, cat. no. 17-0851-01). Aliquots were shock frozen in liquid nitrogen and stored at −80° C.
(§5) Activation of Mnk1 and Mnk2a was at a concentration of 2.5 μM of either purified GST-Mnk1 or GST-Mnk2a by incubation with 150 nM pre-activated NHis-ERK2 (see ERK2 assay for preparation) and 50 μM adenosine triphosphate (ATP, Sigma, cat. no. A2699) in a buffer comprising 20 mM N-(2-hydroxyethyl)piperazine-N′-(2-ethanesulfonic acid) (HEPES, Fluka, Germany, cat. no 54459)/potassium hydroxide (KOH, Roth, Germany, cat. no 6751.1) pH 7.4, 10 mM magnesium chloride (MgCl2, Sigma, Germany, cat. no. M2670), 0.25 mM DTT, 0.05% (w/v) polyoxyethylene 20 stearylether (Brij 78, Sigma, Germany, cat. no. P4019) (HMDB buffer) for 45 min at 30° C.

human Mnk2a = human Mnk2a (Homo sapiens (Human), UniProt Q9HBH9); assay: Mnk2a in vitro kinase assay (indirect fluorescence polarization); assay type: biochemical
Sequence of human Mnk2a (Q9HBH9 whole entry): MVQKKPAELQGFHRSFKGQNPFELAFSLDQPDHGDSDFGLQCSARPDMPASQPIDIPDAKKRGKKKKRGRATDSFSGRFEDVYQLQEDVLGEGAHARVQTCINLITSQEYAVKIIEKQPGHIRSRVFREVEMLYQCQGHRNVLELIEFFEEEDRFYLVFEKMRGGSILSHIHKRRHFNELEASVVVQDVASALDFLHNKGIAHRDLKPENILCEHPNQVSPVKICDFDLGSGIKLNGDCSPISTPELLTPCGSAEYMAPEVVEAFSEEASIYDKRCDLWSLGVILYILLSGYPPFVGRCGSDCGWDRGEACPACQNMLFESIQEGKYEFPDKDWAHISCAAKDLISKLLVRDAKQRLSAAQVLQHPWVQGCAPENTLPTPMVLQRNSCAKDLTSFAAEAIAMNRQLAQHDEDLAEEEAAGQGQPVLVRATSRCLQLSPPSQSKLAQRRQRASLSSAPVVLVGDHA
Method: as §1, §2, §3, §4, §5

[1] = test system: Mnk2 (Mnk2a or Mnk2b) or Mnk1; conditions: cell culture cells transfected with Mnk2 (Mnk2a or Mnk2b) or Mnk1; cited from earlier work

Sequence of human Mnk1 (Q9BUB5 other isoform, or with tags, fused parts or gaps): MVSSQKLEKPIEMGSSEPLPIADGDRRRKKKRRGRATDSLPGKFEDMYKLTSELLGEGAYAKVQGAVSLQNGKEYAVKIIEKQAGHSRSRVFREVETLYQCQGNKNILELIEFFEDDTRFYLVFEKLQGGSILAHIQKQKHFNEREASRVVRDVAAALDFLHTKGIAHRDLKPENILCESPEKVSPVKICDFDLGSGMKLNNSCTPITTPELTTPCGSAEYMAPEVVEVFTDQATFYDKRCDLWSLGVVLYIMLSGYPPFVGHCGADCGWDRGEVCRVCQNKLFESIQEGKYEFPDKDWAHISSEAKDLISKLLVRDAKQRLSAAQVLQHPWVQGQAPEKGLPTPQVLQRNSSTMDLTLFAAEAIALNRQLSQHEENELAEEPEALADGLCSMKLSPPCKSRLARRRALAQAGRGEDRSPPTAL

| Structure (SMILES) | IC50 (human Mnk1) [nM] | IC50 (human Mnk2a) [nM] | reduction of phosphorylated eIF4E [1] |
| --- | --- | --- | --- |
| COCCNC(=O)c1sc2ncnc(Nc3ccc(F)cc3OC3CCOCC3)c2c1C [Example 6, 4-(4-Fluoro-2-(tetrahydro-2H-pyran-4-yloxy)phenylamino)-N-(2-methoxyethyl)-5-methylthieno[2,3-d]pyrimidine-6-carboxamide] | 180 | 35 | – |
| Cc1c(C(N)=O)sc2ncnc(Nc3ccc(F)cc3OC3CCN(Cc4ncon4)CC3)c12 [Example 48, 4-(2-(1-((1,2,4-Oxadiazol-3-yl)methyl)piperidin-4-yloxy)-4-fluorophenylamino)-5-methylthieno[2,3-d]pyrimidine-6-carboxamide] | 460 | 92 | – |
| Fc1ccc(Nc2ncnc3sc4c(c23)CCNC4)c(OC2CCOCC2)c1 [Example 41, [4-fluoro-2-(tetrahydro-2H-pyran-4-yloxy)-phenyl]-(5,6,7,8-tetrahydro-pyrido[4′,3′:4,5]thieno[2,3-d]pyrimidin-4-yl)-amine] | 210 | 110 | – |
| Cc1c(C(=O)NCCCN(C)C)sc2ncnc(Nc3ccc(F)cc3OC(C)C)c12 [Example 53, N-(3-(Dimethylamino)propyl)-4-(4-fluoro-2-iso-propoxyphenylamino)-5-methylthieno[2,3-d]pyrimidine-6-carboxamide] | 35 | 6 | – |
| Cc1c(C(=O)NCCCN(C)C)sc2ncnc(Nc3ccc(F)cc3OC3CCOCC3)c12 [Example 9, N-(3-(Dimethylamino)propyl)-4-(4-fluoro-2-(tetrahydro-2H-pyran-4-yloxy)phenyl-amino)-5-methylthieno[2,3-d]pyrimidine-6-carboxamide] | 100 | 27 | – |
| Nc1ncnc2n[nH]c(Nc3ccc(F)cc3)c12 [CGP57380] | – | – | strong reduction |
| CCOc1cc(C(N)=O)ccc1Nc1ncnc2sc(C(N)=O)c(C)c12 [Example 2, 4-(4-Carbamoyl-2-ethoxyphenylamino)-5-methylthieno[2,3-d]pyrimidine-6-carboxamide] | 120 | 28 | – |
| Cc1c(C(=O)NCCN2CCOCC2)sc2ncnc(Nc3ccc(F)cc3OC3CCOCC3)c12 [Example 10, 4-(4-Fluoro-2-(tetrahydro-2H-pyran-4-yloxy)phenylamino)-5-methyl-N-(2-morpholinoethyl)thieno[2,3-d]pyrimidine-6-carboxamide] | 210 | 34 | – |
| Cc1c(C(=O)NCCCN(C)C)sc2ncnc(Nc3ccc(C(F)(F)F)nc3OC3CCOCC3)c12 [Example 34, 4-(2-(Tetrahydro-2H-pyran-4-yloxy)-6-(trifluoromethyl)pyridin-3-ylamino)-N-(3-(dimethylamino)propyl)-5-methylthieno[2,3-d]pyrimidine-6-carboxamide] | 680 | 560 | – |
